# Results taken from US20150202291A1, “COMBINATIONS OF CHECKPOINT INHIBITORS AND THERAPEUTICS TO TREAT CANCER” (COGNATE BIOSERVICES, INC., priority 2013, published 2015).
# Assays:
# [1] = tested on: advanced, treatment-refractory malignancies; settings: cited from earlier work
# [2] = tested on: diffuse large B-cell lymphoma (DLBCL); settings: cited from earlier work
# [3] = tested on: GL261 murine glioma; assay: Intracranial GL261 glioma model, flow cytometry of tumor and lymph node cell populations; type: in vivo, C57BL/6 mice; settings: day 16 post-implant, 72 h after second treatment
# Experimental: There may be limited endogenous immune response to tumor in C57BL/6 mice intracranially implanted with GL261 murine glioma (FIG. 1A). Mice were intracranially implanted with GL261 murine glioma and then administered PBS (1×) or lysate-pulsed DC vaccine subcutaneously on days 3 and 13 post-tumor implant. On day 16, 72 h after the second treatment, mice were euthanized and spleen, lymph, and brain hemispheres harvested for processing. […] To determine the overall physiologic effect of these cell populations, two groups of GL261 glioma-bearing mice (control and DC vaccine-treated) were maintained and monitored survival.
# It was hypothesized that anti-tumor response promoted by the vaccination treatment is mitigated by PD-1/PD-L1 signaling in the tumor microenvironment. […] To evaluate this population, two additional therapies to control and DC-vaccine treatment were examined: anti-PD-1 mAb-treated and combination DC vaccine with anti-PD-1 mAb-treated groups. Spleen, lymph, and brain hemispheres harvested for processing on day 16 post-implant (72 h after second treatment). […] To evaluate therapeutic benefit, mice were implanted, treated, and monitored for survival.
# The inhibitory myeloid population was depleted utilizing Ly6C depleting Ab or the clinically-relevant CSF1r inhibitory drug PLX3397. […]
# [4] = tested on: GL261 murine glioma; assay: Intracranial GL261 glioma model, survival; type: in vivo, C57BL/6 mice; settings: well-established intracranial GL261 glioma
# Experimental: The inhibitory myeloid population was depleted utilizing Ly6C depleting Ab or the clinically-relevant CSF1r inhibitory drug PLX3397. […] Spleen, lymph, and brain hemispheres harvested for processing on day 16 post-implant (72 h after second treatment).
# Bone marrow-derived DC and vaccination. […] Briefly, bone marrow cells were cultured in a humidified atmosphere of 5% CO2 at 37° C. overnight in complete RPMI (Mediatech, Inc. Herndon, Va.) (supplemented with 10% FBS, 1% (v/v) penicillin and streptomycin). […]
compound,measurement,setting,value
BMS-936558: fully human IgG4 monoclonal antibody targeting PD-1,tumor regressions,"[1]; advanced, treatment-refractory malignancies, biweekly administration",durable partial or complete regressions
same,clinical activity,[1]; subjects with non-small cell lung cancer (NSCLC),substantial clinical activity
CT-011: humanized IgG1 monoclonal antibody against PD-1,activity of natural killer cells,[2]; phase II trial finding,augments the activity of natural killer cells
same,subjects progression-free at the end of the follow-up period,"[2]; phase II, DLBCL after autologous stem cell transplantation, control group 47%",70%
same,subjects alive,"[2]; phase II, DLBCL after autologous stem cell transplantation, control group 62%",82%
FC(F)(F)c1ccc(CNc2ccc(Cc3c[nH]c4ncc(Cl)cc34)cn2)cn1 [PLX3397],activated tumor-infiltrating lymphocytes (CD3+CD8+CD25+),[3],significant tumor-infiltrating population
same,"inhibitory myeloid population (Ly6C+, PD-L1+) in tumor",[3],absence
same,survival,[4],entirely recovered survival benefit
